Data on two compounds can be found in PMC4601640, “Stability of the Human Hsp90-p50^Cdc37 Chaperone Complex against Nucleotides and Hsp90 Inhibitors, and the Influence of Phosphorylation by Casein Kinase 2” (Molecules, 2015).

“Also recorded” adds a separate entry of the source.

For assay [1], the target named is T1, ΔHsp90β interaction with GST-p50^Cdc37 (Homo sapiens, UniProt P08238, DEL220-271/E274G/I272G/K273G/K275G).
T1 construct: human Hsp90β (1-724 Δ220-275); made in house; host or cells: E. coli BL21 Star (DE3) (ΔHsp90β); E. coli BL21 (DE3) (GST-p50Cdc37)
T1 sequence (P08238 with tags, fused parts or gaps DEL220-271/I272G/K273G/E274G/K275G): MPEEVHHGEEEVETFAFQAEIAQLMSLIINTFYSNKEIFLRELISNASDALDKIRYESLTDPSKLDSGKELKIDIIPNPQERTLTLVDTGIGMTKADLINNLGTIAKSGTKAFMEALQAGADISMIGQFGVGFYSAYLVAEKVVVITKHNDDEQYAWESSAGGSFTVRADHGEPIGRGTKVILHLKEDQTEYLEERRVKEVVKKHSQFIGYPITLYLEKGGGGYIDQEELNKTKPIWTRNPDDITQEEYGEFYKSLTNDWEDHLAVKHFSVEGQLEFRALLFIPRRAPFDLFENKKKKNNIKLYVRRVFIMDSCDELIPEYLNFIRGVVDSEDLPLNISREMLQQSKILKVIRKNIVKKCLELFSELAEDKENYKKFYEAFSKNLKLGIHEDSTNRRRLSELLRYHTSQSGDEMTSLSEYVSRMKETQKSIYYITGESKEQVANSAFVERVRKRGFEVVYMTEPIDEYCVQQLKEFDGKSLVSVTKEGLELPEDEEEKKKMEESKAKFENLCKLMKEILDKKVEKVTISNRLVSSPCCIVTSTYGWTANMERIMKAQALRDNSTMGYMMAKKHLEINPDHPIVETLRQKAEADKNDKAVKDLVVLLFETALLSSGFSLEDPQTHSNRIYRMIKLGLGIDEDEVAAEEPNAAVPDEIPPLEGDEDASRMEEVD
Put plainly: GST pull-down of ΔHsp90β with GST-p50^Cdc37. The class given is binding. On the procedure: GST pull-down experiments were carried out using 1 mL GST 4 FastFlow resin in 8 mL Flex columns (Kontes). All experiments were performed at room temperature by gravity flow. Loading and wash buffers contained 50 mM Tris pH 8, 50 mM KCl, 5 mM MgCl2, and 5% DMSO. The elution buffer contained an additional 10 mM reduced glutathione. […] The resin was washed with 20 CV wash buffer, and samples were eluted with 2 CV elution buffer. Eluted protein was analysed on 12% SDS-PAGE stained with Coomassie blue for visualization.

The target of another assay is T2, hHsp90β-FL (Homo sapiens, UniProt P08238).
T2 construct: The gene encoding human full-length Hsp90β was subcloned from T47D cell line cDNA; His6 (N); made in house; host or cells: E. coli BL21 Star (DE3)
Put plainly: ITC direct binding to full-length Hsp90β. Conditions: Figure 3. Here is the method: (§1) Binding of p50^Cdc37 and small molecules to Hsp90 was analyzed using a MicroCal iTC200 titration calorimeter (GE Healthcare). Compounds or p50^Cdc37 were titrated into a solution of Hsp90 using the following concentrations: p50^Cdc37 (200 µM) into Hsp90 (20 µM), nucleotides (600 µM) into Hsp90 (30 µM), inhibitors (300 µM) into Hsp90 (30 µM). […] All experiments were conducted in 50 mM HEPES pH 7.5, 10 mM MgCl2 at 30 °C. For titration of inhibitors, the buffer contained 5% DMSO. […] Generation of heat due to dilution was determined in separate experiments by diluting protein into buffer and subtracting these as blank values for each injection. Corrected heat values were fitted using a nonlinear least squares curve-fitting algorithm (Microcal Origin 7.0) to obtain the stoichiometry (n), binding constants (Ka, Kd), and change in enthalpy for each enzyme-ligand interaction (ΔH).

For another assay, the target named is T3, ΔHsp90-p50^Cdc37 (Homo sapiens, UniProt P08238, DEL220-271/E274G/I272G/K273G/K275G).
T3 construct: human Hsp90β (1-724 Δ220-275); made in house; host or cells: E. coli BL21 Star (DE3) (ΔHsp90β); E. coli BL21 (DE3) (GST-p50Cdc37)
T3 sequence (P08238 with tags, fused parts or gaps DEL220-271/I272G/K273G/E274G/K275G): as above
Put plainly: ELISA complex formation, ΔHsp90. Format: binding.

The target in the next assay is (p)Hsp90-(p)p50^Cdc37 (Homo sapiens, UniProt P08238). Description: biochemical.
Sequence of (p)Hsp90-(p)p50^Cdc37 (P08238 whole entry): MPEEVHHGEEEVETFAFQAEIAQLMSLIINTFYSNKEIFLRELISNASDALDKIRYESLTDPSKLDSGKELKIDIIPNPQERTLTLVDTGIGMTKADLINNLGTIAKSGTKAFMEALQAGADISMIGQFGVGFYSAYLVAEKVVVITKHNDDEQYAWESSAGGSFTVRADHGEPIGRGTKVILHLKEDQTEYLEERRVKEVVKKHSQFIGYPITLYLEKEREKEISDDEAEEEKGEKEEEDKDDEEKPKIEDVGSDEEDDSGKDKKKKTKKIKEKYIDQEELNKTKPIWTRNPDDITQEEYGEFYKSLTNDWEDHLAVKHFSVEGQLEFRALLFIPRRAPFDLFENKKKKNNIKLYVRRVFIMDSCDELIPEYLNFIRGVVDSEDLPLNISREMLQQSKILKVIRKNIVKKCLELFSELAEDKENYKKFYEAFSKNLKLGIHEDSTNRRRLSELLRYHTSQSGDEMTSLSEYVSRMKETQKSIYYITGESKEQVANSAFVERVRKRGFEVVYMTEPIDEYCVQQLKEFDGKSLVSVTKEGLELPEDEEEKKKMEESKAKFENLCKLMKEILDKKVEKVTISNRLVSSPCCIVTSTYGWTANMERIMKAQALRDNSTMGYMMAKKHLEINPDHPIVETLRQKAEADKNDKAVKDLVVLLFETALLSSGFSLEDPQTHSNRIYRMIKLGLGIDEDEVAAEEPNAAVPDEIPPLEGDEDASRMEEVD
For the next assay, the target named is T4, Hsp90-p50^Cdc37 (Homo sapiens, UniProt P08238).
T4 construct: The gene encoding human full-length Hsp90β was subcloned from T47D cell line cDNA; made in house; host or cells: E. coli BL21 Star (DE3) (Hsp90β); E. coli BL21 (DE3) (GST-p50Cdc37)
Put plainly: ELISA complex formation, immobilized GST-p50^Cdc37 and Hsp90β, unphosphorylated. The class given is binding. For orientation: An ELISA detects its analyte on a solid surface through an enzyme-linked reagent.

In another assay the target is (p)Hsp90-p50^Cdc37 (Homo sapiens, UniProt P08238). Description: ELISA complex formation, CK2-phosphorylated Hsp90β.
Sequence of (p)Hsp90-p50^Cdc37 (P08238 whole entry): as above
A further assay concerns the target yHsp82-FL. To be noted: yHsp82-FL with human p50^Cdc37; ref [30]; read-out: Reported Kd; cited from earlier work.
In a further assay the target is T5, hHsp90β-N (Homo sapiens, UniProt P08238).
T5 construct: human N-terminal Hsp90β (1-219, denoted Hsp90β-N); His6 (N); made in house; host or cells: E. coli BL21 Star (DE3)
T5 sequence (P08238 1-219): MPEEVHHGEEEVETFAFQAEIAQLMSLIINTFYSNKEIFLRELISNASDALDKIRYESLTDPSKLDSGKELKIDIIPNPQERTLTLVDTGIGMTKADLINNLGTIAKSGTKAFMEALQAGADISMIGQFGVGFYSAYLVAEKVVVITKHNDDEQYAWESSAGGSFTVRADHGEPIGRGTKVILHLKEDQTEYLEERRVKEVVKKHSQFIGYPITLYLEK
Put plainly: ITC direct binding to N-terminal domain of Hsp90β. Conditions: 30 °C, read-out: Observed Kd. The source says:
The gene encoding human full-length Hsp90β was subcloned from T47D cell line cDNA, and human full-length CK2α was subcloned from MCF7 cell line cDNA, both a kind gift from Dr. Jonathan Lancaster, Moffitt Cancer Center. The genes encoding the deletion mutants human Hsp90α (1-732 Δ226-283), human Hsp90β (1-724 Δ220-275), human N-terminal Hsp90β (1-219, denoted Hsp90β-N), and human full-length p50^Cdc37 (residues 1-378) were synthesized by GeneArt AG with optimized codon usage for E. coli expression. The deleted sections in the two Hsp90 genes were each replaced by four glycine residues. […]
Binding of p50^Cdc37 and small molecules to Hsp90 was analyzed using a MicroCal iTC200 titration calorimeter (GE Healthcare). […] Typically, an initial 0.5 µL injection was followed by 19 injections of 2.2 µL of syringe solution (compound or p50^Cdc37) into a 200 µL protein solution of Hsp90 constantly stirred at 1000 rpm, and data were recorded for 180 s between injections. Generation of heat due to dilution was determined in separate experiments by diluting protein into buffer and subtracting these as blank values for each injection. […]

The next assay addresses T6, hΔHsp90β (Homo sapiens, UniProt P08238, DEL220-271/E274G/I272G/K273G/K275G).
T6 construct: human Hsp90β (1-724 Δ220-275); His6 (N); made in house; host or cells: E. coli BL21 Star (DE3)
Put plainly: ITC direct binding to Hsp90β deletion mutant lacking the charged linker. To be noted: 50 mM HEPES pH 7.5, 10 mM MgCl2, 30 °C, read-out: Observed Kd.
Source text: The gene encoding human full-length Hsp90β was subcloned from T47D cell line cDNA, and human full-length CK2α was subcloned from MCF7 cell line cDNA, both a kind gift from Dr. Jonathan Lancaster, Moffitt Cancer Center. […] The deleted sections in the two Hsp90 genes were each replaced by four glycine residues. Hsp90α and Hsp90β were subcloned into the pET28a vector (Novagen), and p50^Cdc37 was subcloned into a modified pET28a vector containing a maltose-binding protein (MBP) solubility tag and a PreScission protease cleavage site using restriction enzymes BamHI and NotI (Fermentas) and T4 DNA ligase (Invitrogen) following the manufacturers’ instructions. BamHI was substituted with NdeI for full-length Hsp90β. p50^Cdc37 was also subcloned into the pGEX6P-1 vector (GE Healthcare) using the same procedure as above to provide an N-terminal GST-tag for GST pull-down and ELISA experiments. The plasmids were transformed into E. coli BL21 Star (DE3) (Hsp90α and Hsp90β, Invitrogen), Tuner (DE3) (p50^Cdc37 modified pET28a, Novagen), or BL21 (DE3) (p50^Cdc37 pGEX6P-1, Stratagene) expression strains. Transformed cells were grown in LB broth at 37 °C until the OD600 reached 0.4, then the temperature was lowered to 16 °C, and cells were induced with 0.1 mM IPTG at OD600 = 0.5–0.7. Cultures were then grown for 20–24 h before harvesting by centrifugation (30 min at 30,000× g, 4 °C).
as §1

T6 sequence (P08238 with tags, fused parts or gaps DEL220-271/I272G/K273G/E274G/K275G): as the sequence (P08238 with tags, fused parts or gaps DEL220-271/I272G/K273G/E274G/K275G) above
Procedure for (p)Hsp90-(p)p50^Cdc37: (§2) Phosphorylation of full-length Hsp90β and p50^Cdc37 was performed using purified full-length CK2α. The reaction was carried out in a 2.5 mL volume containing 50 µM Hsp90β or p50^Cdc37, 0.5 µM CK2α, 0.5 mM ATP, 20 mM Tris (pH 7.5), 50 mM KCl, and 10 mM MgCl2, and was incubated for 1 h at 30 °C. Samples were removed for analysis of phosphorylation status, and the proteins were re-buffered into 50 mM HEPES (pH 7.5), 150 mM NaCl, and 1 mM DTT (ELISA), or into 50 mM HEPES (pH 7.5) for ITC, using PD-10 gravity columns (GE Healthcare). Dephosphorylation was performed using 2.5 units of FastAP (alkaline phosphatase from Thermo Scientific) in buffer containing 10 mM Tris (pH 8.0 at 37 °C), 5 mM MgCl2, 100 mM KCl, 0.02% Triton-X 100, and 0.5 mg/mL BSA for 1 h at 37 °C.
(§3) Purified GST-p50^Cdc37 (4 µM) or control (purified GST alone, 4 µM) was added to glutathione-coated 96-well plates (Pierce) in 100 μL protein buffer (50 mM HEPES, pH 7.5, 150 mM NaCl, 10 mM MgCl2, 0.05% Tween-20, and 0.1% BSA) and incubated for 1 h at room temperature (triplicate wells per sample). […] The mixtures were then added to the wells (100 μL per well, in triplicates) and incubated for 1 h at room temperature before washing. The wells were incubated with anti-His6-tag mAb (1 mg/mL stock, Abcam), diluted 1:2000 in antibody buffer (50 mM HEPES pH 7.5, 150 mM NaCl, 10 mM MgCl2, 0.05% Tween-20, and 1% BSA) for 1 h, followed by secondary antibody (horse anti-mouse HRP-conjugated IgG, Cell Signaling Technology), diluted 1:5000 in antibody buffer, for 1.5 h at room temperature. After washing three times with 1× HBS-T and two times with 1× HBS, 200 μL HRP substrate (SigmaFast OPD) was added per well. The plates were incubated at room temperature, and the absorbance was read at 450 nm after 15 min and 30 min using a SpectraMax 340 PC plate reader (Molecular Devices). For dose-response measurements, absorption values were corrected for unspecific binding of Hsp90 to immobilized GST, and the raw data were fit to equation (1), where f(I) is the fraction of complex remaining, [I] is the concentration of the inhibitor, IC50 is the half maximal inhibitory concentration against Hsp90-p50^Cdc37 complex formation, n is the Hill slope coefficient, min is the signal remaining at high inhibitor concentrations and max is the signal of the uninhibited complex. Corrected absorption values (ΔOD) for the uninhibited Hsp90-p50^Cdc37 complex (unphosphorylated and phosphorylated) were in the range of 0.4–1.0. Data were expressed relative to the respective max value of Equation (1). (1) f(I)=min+(max−min)/1+([I]/IC50)^n
Procedure for (p)Hsp90-p50^Cdc37: as §2, §3

As to `CC(=O)O[C@@H]1C[C@H]2C(C)(C)C(=O)C=C[C@]2(C)[C@H]2CC[C@@]3(C)[C@H](c4ccoc4)OC(=O)[C@H]4O[C@]43[C@@]21C` [Gedunin], the “effect on complex in GST pull-down” value in assay [1] (1 mM nucleotide or 0.1 mM inhibitor, 15 min incubation, SDS-PAGE) was “ineffective”. Further, in [1] (in the presence of ADP, 0.1 mM radicicol), the “protection of the complex from ADP in GST pull-down competition” value is recorded as “had no effect”. Moreover, on hHsp90β-FL, the “binding potential towards Hsp90β” value is recorded as “failed to display binding potential”. For the same compound, the IC50 (in general, the point on the concentration scale where inhibition reaches its midpoint) at ΔHsp90-p50^Cdc37 is more than 1000 µM; on (p)Hsp90-(p)p50^Cdc37 it was more than 1000 µM; on Hsp90-p50^Cdc37 (ELISA, Hsp90-p50^Cdc37 (unphosphorylated)), more than 1000 µM; against (p)Hsp90-p50^Cdc37, more than 1000 µM. At Hsp90-p50^Cdc37 (unphosphorylated or phosphorylated complex, in vitro), the “inhibitory activity against the complex” value is “did not show appreciable inhibitory activity; also recorded: did not affect the interaction of Hsp90 with p50^Cdc37 in vitro”.

For the compound “p50^Cdc37: human full-length co-chaperone protein p50^Cdc37 (residues 1-378), unphosphorylated”, the results for the Kd at yHsp82-FL, with hHsp90β-N and with hΔHsp90β were 1.5 µM, 4.4 µM and 1.1 µM, respectively.
